Measurements reported in patent publication US7973055B2, “Crystalline forms of a biphenyl compound” (Theravance, Inc., priority 2006, dated 2011).

Legend:
[1] = target: T1, hM3 receptor (CHO cells) (Homo sapiens, UniProt P20309); assay: Blockade of agonist-mediated calcium release via FLIPR; format: cell-based; conditions: CHO cells stably expressing hM3, FLIPR; this or a similar assay
T1 construct: expressed in transfected cells
Excerpt: Muscarinic receptor subtypes (M1, M3 and M5 receptors), which couple to Gq proteins, activate the phospholipase C (PLC) pathway upon agonist binding to the receptor. As a result, activated PLC hydrolyzes phosphatyl inositol diphosphate (PIP2) to diacylglycerol (DAG) and […] (IP3), which in turn generates calcium release from intracellular stores, i.e., endoplasmic and sarcoplasmic reticulum. The FLIPR (Molecular Devices, Sunnyvale, Calif.) assay capitalizes on this increase in intracellular calcium by using a calcium sensitive dye (Fluo-4AM, Molecular Probes, Eugene, Oreg.) that fluoresces when free calcium binds. This fluorescence event was measured in real time by the FLIPR, which detected the change in fluorescence from a monolayer of cells cloned with human M1 and M3, and chimpanzee M5 receptors. Antagonist potency was determined by the ability of antagonists to inhibit agonist-mediated increases in intracellular calcium.
For FLIPR calcium stimulation assays, CHO cells stably expressing the hM1, hM3 and cM5 receptors were seeded into 96-well FLIPR plates the night before the assay was done. […]
To determine antagonist potency, the dose-dependent stimulation of intracellular Ca^2+ release for oxotremorine was first determined so that antagonist potency can later be measured against oxotremorine stimulation at an EC90 concentration. […]

[2] = system: ACh-induced bronchoconstriction; assay: Duration of bronchoprotection in guinea pig model of acetylcholine-induced bronchoconstriction; format: in vivo; conditions: inhalation, 1.5 hours post-dose, expected
Experimental: Groups of six male guinea pigs (Duncan-Hartley (HsdPoc:DH) Harlan, Madison, Wis.) weighing between 250 and 350 g are individually identified by cage cards. Throughout the study, animals are allowed access to food and water ad libitum.
Test compounds are administered via inhalation over 10 minutes in a whole-body exposure dosing chamber (R&S Molds, San Carlos, Calif.). The dosing chambers are arranged so that an aerosol was simultaneously delivered to 6 individual chambers from a central manifold. Guinea pigs are exposed to an aerosol of a test compound or vehicle (WFI). […] This is measured gravimetrically by comparing pre-and post-nebulization weights of the filled nebulizer.
The bronchoprotective effects of test compounds administered via inhalation are evaluated using whole body plethysmography at 1.5, 24, 48 and 72 hours post-dose.
Forty-five minutes prior to the start of the pulmonary evaluation, each guinea pig is anesthetized with an intramuscular injection of ketamine (43.75 mg/kg), xylazine (3.50 mg/kg) and acepromazine (1.05 mg/kg). […] The depth of anesthesia is monitored and adjusted if the animal responds to pinching of its paw or if the respiration rate is greater than 100 breaths/minute. […]
Starting this program initiates the experimental protocol and data collection. […] By integrating this signal over time, a measurement of […] is calculated for each breath. […]

T1 sequence (P20309 whole entry): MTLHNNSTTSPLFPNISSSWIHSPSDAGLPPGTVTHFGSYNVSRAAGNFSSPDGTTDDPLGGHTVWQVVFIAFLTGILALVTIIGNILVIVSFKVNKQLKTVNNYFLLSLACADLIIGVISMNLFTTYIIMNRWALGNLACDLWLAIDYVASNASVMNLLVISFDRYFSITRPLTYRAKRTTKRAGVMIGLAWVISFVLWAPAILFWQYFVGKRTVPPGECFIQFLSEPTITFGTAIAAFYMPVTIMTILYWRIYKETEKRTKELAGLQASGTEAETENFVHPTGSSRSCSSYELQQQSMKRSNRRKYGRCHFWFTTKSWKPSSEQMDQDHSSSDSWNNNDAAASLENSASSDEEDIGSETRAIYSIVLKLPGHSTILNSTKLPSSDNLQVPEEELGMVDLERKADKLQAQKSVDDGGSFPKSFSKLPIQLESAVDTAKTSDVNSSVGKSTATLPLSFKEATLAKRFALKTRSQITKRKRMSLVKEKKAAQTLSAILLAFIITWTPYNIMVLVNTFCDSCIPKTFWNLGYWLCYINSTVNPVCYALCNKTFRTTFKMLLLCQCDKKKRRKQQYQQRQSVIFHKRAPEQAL

In the case of CN(CCN1CCC(OC(=O)Nc2ccccc2-c2ccccc2)CC1)C(=O)c1cccc(C(=O)NCCNCc2ccc(O)cc2)c1 [compound of formula I, biphenyl-2-ylcarbamic acid 1-[2-({3-[2-(4-hydroxybenzylamino)ethylcarbamoyl]benzoyl}methylamino)ethyl]piperidin-4-yl ester], the Ki [1] is reported as < 0.01 µM and the “PD2(50) for ACh-induced bronchoconstriction” value [2] is reported as “less than 200 μg/mL”.
